Measured values published in ChEMBL document CHEMBL4699602, “Stapled and Xenopus Glucagon-Like Peptide 1 (GLP-1)-Based Dual GLP-1/Gastrin Receptor Agonists with Improved Metabolic Benefits in Rodent Models of Obesity and Diabetes” (J Med Chem, 2020).
Where a SMILES comes first, the peptide text is derived from it. [ ]: non-standard residue; d: D form. Aib = CC(C)(N)C(=O)O

The compounds below were run against Glucagon-like peptide 1 receptor (Homo sapiens, UniProt P43220) (assay: Agonist activity at human GLP-1R expressed in HEK293 cells assessed as stimulation of cAMP accumulation incubated for 20 mins).
Type: functional, cell-based

Sequence of Glucagon-like peptide 1 receptor (P43220 whole entry): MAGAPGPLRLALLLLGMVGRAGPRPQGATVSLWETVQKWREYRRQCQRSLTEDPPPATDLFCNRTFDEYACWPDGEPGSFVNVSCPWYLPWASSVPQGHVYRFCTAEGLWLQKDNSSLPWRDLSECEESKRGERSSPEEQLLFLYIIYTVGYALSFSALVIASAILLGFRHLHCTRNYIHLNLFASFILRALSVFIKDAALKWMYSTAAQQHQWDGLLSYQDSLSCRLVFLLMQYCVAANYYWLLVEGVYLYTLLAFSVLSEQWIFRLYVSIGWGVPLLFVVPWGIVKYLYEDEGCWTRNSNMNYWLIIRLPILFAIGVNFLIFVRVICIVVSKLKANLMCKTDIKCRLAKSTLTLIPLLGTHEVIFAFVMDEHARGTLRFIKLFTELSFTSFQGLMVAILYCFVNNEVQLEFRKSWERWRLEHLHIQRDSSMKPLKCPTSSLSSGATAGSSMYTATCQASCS

Compound	EC50 [nM]
CC[C@H](C)[C@H](NC(=O)[C@H](CC(C)C)NC(=O)[C@H](Cc1c[nH]c2ccccc12)NC(=O)[C@H](CCC(=O)O)NC(=O)[C@@H](NC(=O)[C@H](Cc1ccccc1)NC(=O)[C@H](CCC(=O)O)NC(=O)[C@H](CCCCN)NC(=O)[C@H](C)NC(=O)[C@H](CS)NC(=O)[C@H](CCC(=O)O)NC(=O)[C@H](CCC(=O)O)NC(=O)[C@H](CCC(=O)O)NC(=O)[C@H](CC(C)C)NC(=O)[C@H](Cc1ccc(O)cc1)NC(=O)[C@H](CCC(=O)O)NC(=O)[C@H](CS)NC(=O)[C@@H](NC(=O)[C@H](CC(=O)O)NC(=O)[C@H](CC(N)=O)NC(=O)[C@@H](NC(=O)[C@H](Cc1ccc(O)cc1)NC(=O)[C@@H](NC(=O)CNC(=O)[C@H](CCC(=O)O)NC(=O)C(C)(C)NC(=O)[C@@H](N)Cc1c[nH]cn1)[C@@H](C)O)[C@@H](C)O)C(C)C)[C@@H](C)CC)C(=O)N[C@@H](CCCCN)C(=O)NCC(=O)N[C@@H](CCCCN)C(N)=O (HELM PEPTIDE1{H.[Aib].E.G.T.Y.T.N.D.V.C.E.Y.L.E.E.E.C.A.K.E.F.I.E.W.L.I.K.G.K.[am]}$$$$V2.0)	0.32
CC[C@H](C)[C@H](NC(=O)[C@H](CC(C)C)NC(=O)[C@H](Cc1c[nH]c2ccccc12)NC(=O)[C@H](CCC(=O)O)NC(=O)[C@@H](NC(=O)[C@H](Cc1ccccc1)NC(=O)[C@H](CCC(=O)O)NC(=O)[C@H](CCCCN)NC(=O)[C@H](CS)NC(=O)[C@H](C)NC(=O)[C@H](CCC(=O)O)NC(=O)[C@H](CCC(=O)O)NC(=O)[C@H](CCC(=O)O)NC(=O)[C@H](CC(C)C)NC(=O)[C@H](Cc1ccc(O)cc1)NC(=O)[C@H](CS)NC(=O)[C@@H](NC(=O)[C@@H](NC(=O)[C@H](CC(=O)O)NC(=O)[C@H](CC(N)=O)NC(=O)[C@@H](NC(=O)[C@H](Cc1ccc(O)cc1)NC(=O)[C@@H](NC(=O)CNC(=O)[C@H](CCC(=O)O)NC(=O)C(C)(C)NC(=O)[C@@H](N)Cc1c[nH]cn1)[C@@H](C)O)[C@@H](C)O)C(C)C)[C@@H](C)O)[C@@H](C)CC)C(=O)N[C@@H](CCCCN)C(=O)NCC(=O)N[C@@H](CCCCN)C(=O)N1CCC[C@H]1C(=O)N[C@@H](CO)C(=O)N[C@@H](CO)C(=O)NCC(=O)N[C@@H](C)C(=O)N1CCC[C@H]1C(=O)N1CCC[C@H]1C(=O)N1CCC[C@H]1C(=O)N[C@@H](CO)C(N)=O (HELM PEPTIDE1{H.[Aib].E.G.T.Y.T.N.D.V.T.C.Y.L.E.E.E.A.C.K.E.F.I.E.W.L.I.K.G.K.P.S.S.G.A.P.P.P.S.[am]}$$$$V2.0)	0.12
CC[C@H](C)[C@H](NC(=O)[C@H](CC(C)C)NC(=O)[C@H](Cc1c[nH]c2ccccc12)NC(=O)[C@H](CCC(=O)O)NC(=O)[C@@H](NC(=O)[C@H](Cc1ccccc1)NC(=O)[C@H](CCC(=O)O)NC(=O)[C@H](CCCCN)NC(=O)[C@H](C)NC(=O)[C@H](CS)NC(=O)[C@H](CCC(=O)O)NC(=O)[C@H](CCC(=O)O)NC(=O)[C@H](CCC(=O)O)NC(=O)[C@H](CC(C)C)NC(=O)[C@H](Cc1ccc(O)cc1)NC(=O)[C@H](CCC(=O)O)NC(=O)[C@H](CS)NC(=O)[C@@H](NC(=O)[C@H](CC(=O)O)NC(=O)[C@H](CC(N)=O)NC(=O)[C@@H](NC(=O)[C@H](Cc1ccc(O)cc1)NC(=O)[C@@H](NC(=O)CNC(=O)[C@H](CCC(=O)O)NC(=O)C(C)(C)NC(=O)[C@@H](N)Cc1c[nH]cn1)[C@@H](C)O)[C@@H](C)O)C(C)C)[C@@H](C)CC)C(=O)N[C@@H](CCCCN)C(=O)NCC(=O)N[C@@H](CCCCN)C(=O)N1CCC[C@H]1C(=O)N[C@@H](CO)C(=O)N[C@@H](CO)C(=O)NCC(=O)N[C@@H](C)C(=O)N1CCC[C@H]1C(=O)N1CCC[C@H]1C(=O)N1CCC[C@H]1C(=O)N[C@@H](CO)C(N)=O (HELM PEPTIDE1{H.[Aib].E.G.T.Y.T.N.D.V.C.E.Y.L.E.E.E.C.A.K.E.F.I.E.W.L.I.K.G.K.P.S.S.G.A.P.P.P.S.[am]}$$$$V2.0)	0.15
CC[C@H](C)[C@H](NC(=O)[C@H](CC(C)C)NC(=O)[C@H](Cc1c[nH]c2ccccc12)NC(=O)[C@H](CCC(=O)O)NC(=O)[C@H](CS)NC(=O)[C@H](Cc1ccccc1)NC(=O)[C@H](CCC(=O)O)NC(=O)[C@H](CCCCN)NC(=O)[C@H](C)NC(=O)[C@H](C)NC(=O)[C@H](CCC(=O)O)NC(=O)[C@H](CCC(=O)O)NC(=O)[C@H](CCC(=O)O)NC(=O)[C@H](CC(C)C)NC(=O)[C@H](Cc1ccc(O)cc1)NC(=O)[C@H](CCC(=O)O)NC(=O)[C@@H](NC(=O)[C@@H](NC(=O)[C@H](CC(=O)O)NC(=O)[C@H](CC(N)=O)NC(=O)[C@@H](NC(=O)[C@H](Cc1ccc(O)cc1)NC(=O)[C@@H](NC(=O)CNC(=O)[C@H](CCC(=O)O)NC(=O)C(C)(C)NC(=O)[C@@H](N)Cc1c[nH]cn1)[C@@H](C)O)[C@@H](C)O)C(C)C)[C@@H](C)O)C(=O)N[C@@H](CCCCN)C(=O)NCC(=O)N[C@@H](CS)C(N)=O (HELM PEPTIDE1{H.[Aib].E.G.T.Y.T.N.D.V.T.E.Y.L.E.E.E.A.A.K.E.F.C.E.W.L.I.K.G.C.[am]}$$$$V2.0)	0.62
CC[C@H](C)[C@H](NC(=O)[C@H](CC(C)C)NC(=O)[C@H](Cc1c[nH]c2ccccc12)NC(=O)[C@H](CS)NC(=O)[C@@H](NC(=O)[C@H](Cc1ccccc1)NC(=O)[C@H](CCC(=O)O)NC(=O)[C@H](CCCCN)NC(=O)[C@H](C)NC(=O)[C@H](C)NC(=O)[C@H](CS)NC(=O)[C@H](CCC(=O)O)NC(=O)[C@H](CCC(=O)O)NC(=O)[C@H](CC(C)C)NC(=O)[C@H](Cc1ccc(O)cc1)NC(=O)[C@H](CCC(=O)O)NC(=O)[C@@H](NC(=O)[C@@H](NC(=O)[C@H](CC(=O)O)NC(=O)[C@H](CC(N)=O)NC(=O)[C@@H](NC(=O)[C@H](Cc1ccc(O)cc1)NC(=O)[C@@H](NC(=O)CNC(=O)[C@H](CCC(=O)O)NC(=O)C(C)(C)NC(=O)[C@@H](N)Cc1c[nH]cn1)[C@@H](C)O)[C@@H](C)O)C(C)C)[C@@H](C)O)[C@@H](C)CC)C(=O)N[C@@H](CCCCN)C(=O)NCC(=O)N[C@@H](CCCCN)C(=O)N1CCC[C@H]1C(=O)N[C@@H](CO)C(=O)N[C@@H](CO)C(=O)NCC(=O)N[C@@H](C)C(=O)N1CCC[C@H]1C(=O)N1CCC[C@H]1C(=O)N1CCC[C@H]1C(=O)N[C@@H](CO)C(N)=O (HELM PEPTIDE1{H.[Aib].E.G.T.Y.T.N.D.V.T.E.Y.L.E.E.C.A.A.K.E.F.I.C.W.L.I.K.G.K.P.S.S.G.A.P.P.P.S.[am]}$$$$V2.0)	0.089
CC[C@H](C)[C@H](NC(=O)[C@H](Cc1ccccc1)NC(=O)[C@H](CCC(=O)O)NC(=O)[C@H](CS)NC(=O)[C@H](C)NC(=O)[C@H](C)NC(=O)[C@H](CCC(=O)O)NC(=O)[C@H](CCC(=O)O)NC(=O)[C@H](CCC(=O)O)NC(=O)[C@H](CC(C)C)NC(=O)[C@H](Cc1ccc(O)cc1)NC(=O)[C@H](CCC(=O)O)NC(=O)[C@@H](NC(=O)[C@@H](NC(=O)[C@H](CC(=O)O)NC(=O)[C@H](CC(N)=O)NC(=O)[C@@H](NC(=O)[C@H](Cc1ccc(O)cc1)NC(=O)[C@@H](NC(=O)CNC(=O)[C@H](CCC(=O)O)NC(=O)C(C)(C)NC(=O)[C@@H](N)Cc1c[nH]cn1)[C@@H](C)O)[C@@H](C)O)C(C)C)[C@@H](C)O)C(=O)N[C@@H](CCC(=O)O)C(=O)N[C@@H](Cc1c[nH]c2ccccc12)C(=O)N[C@@H](CC(C)C)C(=O)N[C@@H](CS)C(=O)N[C@@H](CCCCN)C(=O)NCC(=O)N[C@@H](CCCCN)C(=O)N1CCC[C@H]1C(=O)N[C@@H](CO)C(=O)N[C@@H](CO)C(=O)NCC(=O)N[C@@H](C)C(=O)N1CCC[C@H]1C(=O)N1CCC[C@H]1C(=O)N1CCC[C@H]1C(=O)N[C@@H](CO)C(N)=O (HELM PEPTIDE1{H.[Aib].E.G.T.Y.T.N.D.V.T.E.Y.L.E.E.E.A.A.C.E.F.I.E.W.L.C.K.G.K.P.S.S.G.A.P.P.P.S.[am]}$$$$V2.0)	0.26
H-H[Aib]EGTYTNDVTEYLEEEACKEFIEWCIKGKPSSGAPPSKKKKKK-NH2 (cysteines drawn unpaired)	0.15
CC[C@H](C)[C@H](NC(=O)[C@H](CC(C)C)NC(=O)[C@H](Cc1c[nH]c2ccccc12)NC(=O)[C@H](CCC(=O)O)NC(=O)[C@H](CS)NC(=O)[C@H](Cc1ccccc1)NC(=O)[C@H](CCC(=O)O)NC(=O)[C@H](CCCCN)NC(=O)[C@H](C)NC(=O)[C@H](C)NC(=O)[C@H](CCC(=O)O)NC(=O)[C@H](CS)NC(=O)[C@H](CCC(=O)O)NC(=O)[C@H](CC(C)C)NC(=O)[C@H](Cc1ccc(O)cc1)NC(=O)[C@H](CCC(=O)O)NC(=O)[C@@H](NC(=O)[C@@H](NC(=O)[C@H](CC(=O)O)NC(=O)[C@H](CC(N)=O)NC(=O)[C@@H](NC(=O)[C@H](Cc1ccc(O)cc1)NC(=O)[C@@H](NC(=O)CNC(=O)[C@H](CCC(=O)O)NC(=O)C(C)(C)NC(=O)[C@@H](N)Cc1c[nH]cn1)[C@@H](C)O)[C@@H](C)O)C(C)C)[C@@H](C)O)C(=O)N[C@@H](CCCCN)C(=O)NCC(=O)N[C@@H](CCCCN)C(=O)N1CCC[C@H]1C(=O)N[C@@H](CO)C(=O)N[C@@H](CO)C(=O)NCC(=O)N[C@@H](C)C(=O)N1CCC[C@H]1C(=O)N1CCC[C@H]1C(=O)N1CCC[C@H]1C(=O)N[C@@H](CO)C(N)=O (HELM PEPTIDE1{H.[Aib].E.G.T.Y.T.N.D.V.T.E.Y.L.E.C.E.A.A.K.E.F.C.E.W.L.I.K.G.K.P.S.S.G.A.P.P.P.S.[am]}$$$$V2.0)	0.28
CC[C@H](C)[C@H](NC(=O)[C@H](CS)NC(=O)[C@H](CCC(=O)O)NC(=O)[C@H](CCCCN)NC(=O)[C@H](C)NC(=O)[C@H](C)NC(=O)[C@H](CCC(=O)O)NC(=O)[C@H](CCC(=O)O)NC(=O)[C@H](CCC(=O)O)NC(=O)[C@H](CC(C)C)NC(=O)[C@H](Cc1ccc(O)cc1)NC(=O)[C@H](CCC(=O)O)NC(=O)[C@@H](NC(=O)[C@@H](NC(=O)[C@H](CC(=O)O)NC(=O)[C@H](CC(N)=O)NC(=O)[C@@H](NC(=O)[C@H](Cc1ccc(O)cc1)NC(=O)[C@@H](NC(=O)CNC(=O)[C@H](CCC(=O)O)NC(=O)C(C)(C)NC(=O)[C@@H](N)Cc1c[nH]cn1)[C@@H](C)O)[C@@H](C)O)C(C)C)[C@@H](C)O)C(=O)N[C@@H](CCC(=O)O)C(=O)N[C@@H](Cc1c[nH]c2ccccc12)C(=O)N[C@@H](CC(C)C)C(=O)N[C@H](C(=O)N[C@@H](CCCCN)C(=O)N[C@@H](CS)C(=O)N[C@@H](CCCCN)C(=O)N1CCC[C@H]1C(=O)N[C@@H](CO)C(=O)N[C@@H](CO)C(=O)NCC(=O)N[C@@H](C)C(=O)N1CCC[C@H]1C(=O)N1CCC[C@H]1C(=O)N1CCC[C@H]1C(=O)N[C@@H](CO)C(N)=O)[C@@H](C)CC (HELM PEPTIDE1{H.[Aib].E.G.T.Y.T.N.D.V.T.E.Y.L.E.E.E.A.A.K.E.C.I.E.W.L.I.K.C.K.P.S.S.G.A.P.P.P.S.[am]}$$$$V2.0)	0.16
H-H[Aib]EGTYTNDVTEYLEEECAKEFIECLIKGKPSSGAPPSKKKKKK-NH2 (cysteines drawn unpaired)	0.1
